Test results as given in patent publication US7998965B2, “Glutamate aggrecanase inhibitors” (Wyeth LLC, priority 2005, dated 2011).
Where two headings read alike, the source gives them in different places.

Experiments:
[1] = biological target: T1, purified recombinant human Aggrecanase-1 (rAgg1) (Homo sapiens, UniProt O75173); assay: In vitro fluorescence screen for Aggrecanase-1 inhibitors; format: biochemical; conditions: for IC50: read-out: Agg1 IC50
T1 sequence (O75173 213-837): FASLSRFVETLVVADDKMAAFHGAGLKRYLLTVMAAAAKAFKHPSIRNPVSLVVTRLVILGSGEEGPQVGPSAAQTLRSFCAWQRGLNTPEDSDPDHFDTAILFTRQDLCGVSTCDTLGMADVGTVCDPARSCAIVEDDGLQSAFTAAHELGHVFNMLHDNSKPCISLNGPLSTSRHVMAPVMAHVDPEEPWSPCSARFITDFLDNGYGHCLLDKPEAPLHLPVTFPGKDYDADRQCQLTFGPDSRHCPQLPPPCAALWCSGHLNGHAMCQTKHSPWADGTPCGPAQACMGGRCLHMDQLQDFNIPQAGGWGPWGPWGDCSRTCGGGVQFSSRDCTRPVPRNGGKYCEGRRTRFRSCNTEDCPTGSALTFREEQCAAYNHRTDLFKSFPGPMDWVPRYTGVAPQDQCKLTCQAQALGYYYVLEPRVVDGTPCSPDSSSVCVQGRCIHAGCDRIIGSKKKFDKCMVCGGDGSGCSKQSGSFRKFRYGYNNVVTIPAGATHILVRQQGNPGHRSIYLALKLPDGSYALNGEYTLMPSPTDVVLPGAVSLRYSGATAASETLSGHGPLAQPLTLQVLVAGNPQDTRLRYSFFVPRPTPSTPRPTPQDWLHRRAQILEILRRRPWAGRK

[2] = biological target: T2, purified recombinant human Aggrecanase-2 (Ag2t-Phe628-Strep) (Homo sapiens, UniProt Q9UNA0); assay: In vitro fluorescence screen for Aggrecanase-2 inhibitors; format: biochemical; conditions: for IC50: read-out: Agg 2 IC50
T2 construct: the form used is denoted as Ag2t-Phe628-Strep (MW=41,737)
T2 sequence (Q9UNA0 262-628): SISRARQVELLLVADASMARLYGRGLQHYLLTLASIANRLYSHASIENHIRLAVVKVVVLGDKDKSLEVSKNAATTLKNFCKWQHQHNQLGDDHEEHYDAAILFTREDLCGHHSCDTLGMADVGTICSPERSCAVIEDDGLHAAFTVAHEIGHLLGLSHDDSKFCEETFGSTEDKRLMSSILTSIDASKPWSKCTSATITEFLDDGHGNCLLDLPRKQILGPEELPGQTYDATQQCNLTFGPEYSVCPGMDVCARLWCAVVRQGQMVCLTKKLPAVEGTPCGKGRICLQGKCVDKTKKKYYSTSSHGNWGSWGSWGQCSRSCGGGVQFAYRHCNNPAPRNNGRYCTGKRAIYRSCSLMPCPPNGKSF

| IC50 ([1]; Table 2) [nM] | IC50 ([2]; Table 2) [nM] | IC50 ([1]; Table 3) [nM] | Structure (SMILES) | further results |
| --- | --- | --- | --- | --- |
| 350 | 1670 |  | C[C@@H](CNC(=O)[C@H](CCC(=O)O)NC(=O)c1ccc(-c2ccccc2)cc1)c1ccccc1 [Example 8KKKKKK, N^2-(biphenyl-4-ylcarbonyl)-N-[(2R)-2-phenylpropyl]-L-α-glutamine] |  |
|  |  | < 30 | CC(C)(Cc1ccc(Cl)s1)NC(=O)[C@H](CCC(=O)O)NC(=O)c1ccc(-c2ccc(F)c(Cl)c2)s1 [Example 8KKKKKKK, N^2-{[5-(3-chloro-4-fluorophenyl)-2-thienyl]carbonyl}-N-[2-(5-chloro-2-thienyl)-1,1-dimethylethyl]-L-α-glutamine] | IC50 ([2]; Table 3): < 30 nM |
| > 17000 | > 200000 |  | O=C(O)CC[C@H](NC(=O)c1cccc(Oc2ccccc2)c1)C(=O)NCc1ccccc1 [Example 8LLLLL, N^1-benzyl-N^2-(3-phenoxybenzoyl)-L-α-glutamine] |  |
| > 25000 | > 100000 |  | CC(C)(Cc1ccc(F)cc1)NC(=O)[C@H](CCC(N)=O)NC(=O)c1ccc(-c2ccccc2)cc1 [Example 8LLLLLL, N^2-(biphenyl-4-ylcarbonyl)-N^1-[2-(4-fluorophenyl)-1,1-dimethylethyl]-L-α-glutamamide] |  |
|  |  | 228 | COc1cc(CNC(=O)[C@H](CCC(=O)O)NC(=O)c2ccc(-c3ccc(CO)cc3)cc2)cc(OC)c1OC [Example 8LLLLLLL, N^2-{[4′-(hydroxymethyl)biphenyl-4-yl]carbonyl}-N-(3,4,5-trimethoxybenzyl)-L-α-glutamine] | IC50 ([2]; Table 3): 3380 nM |
|  |  |  | CCC(C)(C)NC(=O)[C@H](CCC(=O)O)NC(=O)c1ccc(-c2ccccc2)cc1 [Example 8MM, N^2-(biphenyl-4-ylcarbonyl)-N^1-(1,1-dimethylpropyl)-L-α-glutamine] | Ki ([1]; Table 1, enzyme not given, column follows Agg1 IC50, read-out: Ki): 126 nM; IC50 ([1]; Table 1): 58 nM; IC50 ([2]; Table 1): 980 nM |
|  |  |  | O=C(O)CC[C@H](NC(=O)c1ccc(-c2ccccc2)cc1)C(=O)NCCc1cccc(Br)c1 [Example 8MMM, N^2-(biphenyl-4-ylcarbonyl)-N^1-[2-(3-bromophenyl)ethyl]-L-α-glutamine] | IC50 ([1]; Table 1): 40 nM; IC50 ([2]; Table 1): 500 nM |
| 20000 | ~22000 |  | CC(C)(NC(=O)[C@H](CCC(=O)O)NC(=O)c1ccc2c(c1)C(=O)c1ccccc1-2)c1ccccc1 [Example 8MMMMM, N^1-(1-methyl-1-phenylethyl)-N^2-[(9-oxo-9H-fluoren-2-yl)carbonyl]-L-α-glutamine] |  |
| 550 | 5100 |  | O=C(O)CC[C@H](NC(=O)c1ccc(-c2ccccc2)cc1)C(=O)N[C@H](CO)Cc1ccccc1 [Example 8MMMMMM, N-[(1S)-1-benzyl-2-hydroxyethyl]-N^2-(biphenyl-4-ylcarbonyl)-L-α-glutamine] |  |
|  |  | 198 | COc1cc(CNC(=O)[C@H](CCC(=O)O)NC(=O)c2ccc(-c3ccc(CBr)cc3)cc2)cc(OC)c1OC [Example 8MMMMMMM, N^2-{[4′-(bromomethyl)biphenyl-4-yl]carbonyl}-N-(3,4,5-trimethoxybenzyl)-L-α-glutamine] | IC50 ([2]; Table 3): 614 nM |
| 1200 | 1890 |  | CC(C)(NC(=O)[C@H](CCC(=O)O)NC(=O)C1c2ccccc2-c2ccccc21)c1ccccc1 [Example 8NNNNN, N^2-(9H-fluoren-9-ylcarbonyl)-N^1-(1-methyl-1-phenylethyl)-L-α-glutamine] |  |
|  |  |  | O=C(O)CC[C@H](NC(=O)c1ccc(-c2ccccc2)cc1)C(=O)NCCC(c1ccccc1)c1ccccc1 [Example 8OOO, N^2-(biphenyl-4-ylcarbonyl)-N^1-(3,3-diphenylpropyl)-L-α-glutamine] | IC50 ([1]; Table 1): 280 nM; IC50 ([2]; Table 1): 1000 nM |
| > 50000 | > 200000 |  | CC(C)(NC(=O)[C@H](CCC(=O)O)NC(=O)c1cccc(Oc2ccccc2)c1)c1ccccc1 [Example 8OOOOO, N^1-(1-methyl-1-phenylethyl)-N^2-(3-phenoxybenzoyl)-L-α-glutamine] |  |
|  |  | < 30 | CC(C)(Cc1ccc(F)cc1)NC(=O)[C@H](CCC(=O)O)NC(=O)c1ccc(-c2ccco2)cc1 [Example 8OOOOOOO, N-[2-(4-fluorophenyl)-1,1-dimethylethyl]-N^2-[4-(2-furyl)benzoyl]-L-α-glutamine] | IC50 ([2]; Table 3): 100 to 400 nM |
|  |  | < 30 | CC(C)(Cc1ccccc1)NC(=O)[C@H](CCC(=O)O)NC(=O)c1ccc(-c2ccccc2)s1 [Example 8OOOOOOOO, N-(1,1-dimethyl-2-phenylethyl)-N^2-[(5-phenyl-2-thienyl)carbonyl]-L-α-glutamine] | IC50 ([2]; Table 3): 200 to 600 nM |
| 157 | 2970 |  | C[C@H](NC(=O)[C@H](CCC(=O)O)NC(=O)c1ccc(-c2ccccc2)cc1)c1ccccc1 [Example 8PPPPP, N^2-(biphenyl-4-ylcarbonyl)-N^1-[(1S)-1-phenylethyl]-L-α-glutamine] |  |
|  |  | 3120 | Cc1cccc(CNC(=O)[C@H](CCC(=O)O)NC(=O)c2ccc(-c3ccc(CO)cc3)cc2)c1 [Example 8PPPPPPP, N^2-{[4′-(hydroxymethyl)biphenyl-4-yl]carbonyl}-N-(3-methylbenzyl)-L-α-glutamine] | inhibition at 16.7 µM ([2]; Table 3, at 16700 (nM), read-out: Agg 2 % at concentration): 48% |
| 108 | 1160 |  | C[C@H](NC(=O)[C@H](CCC(=O)O)NC(=O)c1ccc2c(c1)Cc1ccccc1-2)c1ccccc1 [Example 8QQQQQ, N^2-(9H-fluoren-2-ylcarbonyl)-N^1-[(1S)-1-phenylethyl]-L-α-glutamine] |  |
|  |  |  | CCCCCNC(=O)[C@H](CCC(=O)O)NC(=O)c1ccc(-c2ccccc2)cc1 [Example 8RRR, N^2-(biphenyl-4-ylcarbonyl)-N^1-pentyl-L-α-glutamine] | IC50 ([1]; Table 1): 82 nM; IC50 ([2]; Table 1): 680 nM |
| 129 | 2900 |  | C[C@H](NC(=O)[C@H](CCC(=O)O)NC(=O)c1ccc(-c2ccccc2)cc1)c1ccc(F)cc1 [Example 8RRRRR, N^2-(biphenyl-4-ylcarbonyl)-N1-[(1S)-1-(4-fluorophenyl)ethyl]-L-α-glutamine] |  |
|  |  | 57 | CC(C)(Cc1ccc(F)cc1)NC(=O)[C@H](CCC(=O)O)NC(=O)c1ccc(-c2ccc(F)c(Cl)c2)cc1 [Example 8SSSSSSS, N^2-[(3′-chloro-4′-fluorobiphenyl-4-yl)carbonyl]-N-[2-(4-fluorophenyl)-1,1-dimethylethyl]-L-α-glutamine] | Ki ([1]; Table 3, read-out: Ki Agg1): 22 nM; IC50 ([2]; Table 3): 230 nM; Ki ([2]; Table 3, read-out: Ki Agg2): 356 nM |
| > 17000 | > 22000 |  | O=C(O)CC[C@H](NC(=O)c1ccc(Oc2ccccc2)cc1)C(=O)NCCCCCCO [Example 8TTTT, N^1-(6-hydroxyhexyl)-N^2-(4-phenoxybenzoyl)-L-α-glutamine] |  |
| 389 | 2010 |  | C[C@@H](NC(=O)[C@H](CCC(=O)O)NC(=O)c1ccc(-c2ccccc2)cc1)c1ccc(F)cc1 [Example 8TTTTT, N^2-(biphenyl-4-ylcarbonyl)-N^1-[(1R)-1-(4-fluorophenyl)ethyl]-L-α-glutamine] |  |
|  |  | 707 | Cc1cccc(CNC(=O)[C@H](CCC(=O)O)NC(=O)c2ccc(-c3cccc(CBr)c3)cc2)c1 [Example 8TTTTTTT, N^2-{[3′-(bromomethyl)biphenyl-4-yl]carbonyl}-N-(3-methylbenzyl)-L-α-glutamine] | inhibition at 11 µM ([2]; Table 3, at 11000 (nM), read-out: Agg 2 % at concentration): 20% |
| > 17000 | ~67000 |  | O=C(O)CC[C@H](NC(=O)C1c2ccccc2-c2ccccc21)C(=O)NCCCCCCO [Example 8UUUU, N^2-(9H-fluoren-9-ylcarbonyl)-N^1-(6-hydroxyhexyl)-L-α-glutamine] |  |
| 317 | 2120 |  | C[C@@H](NC(=O)[C@H](CCC(=O)O)NC(=O)c1ccc(-c2ccccc2)cc1)c1ccccc1 [Example 8UUUUU, N^2-(biphenyl-4-ylcarbonyl)-N^1-[(1R)-1-phenylethyl]-L-α-glutamine] |  |

| Structure (SMILES) | IC50 ([1]; Table 2) [nM] | IC50 ([2]; Table 2) [nM] | IC50 ([1]; Table 3) [nM] | further results |
| --- | --- | --- | --- | --- |
| CC(C)(Cc1ccc(F)cc1)NC(=O)[C@H](CCC(=O)O)NC(=O)c1ccc(-c2ccc3c(c2)CCO3)cc1 [Example 8RRRRRRR, N^2-[4-(2,3-dihydro-1-benzofuran-5-yl)benzoyl]-N-[2-(4-fluorophenyl)-1,1-dimethylethyl]-L-α-glutamine] |  |  | 70 to 210 | inhibition at 1.2 µM ([2]; read-out: Agg 2 % at concentration): 48% |
| CC(NC(=O)[C@H](CCC(=O)OC(C)(C)C)NC(=O)c1ccc(-c2ccccc2)cc1)c1ccccc1 (stereo partly drawn) [Example 8SSSSS, tert-butyl N^2-(biphenyl-4-ylcarbonyl)-N^1-(1-Phenylethyl)-L-α-glutaminate] | 208 | 2470 |  |  |
